Several values for one entry are separate records, joined by “and”; a condition that tells them apart may be missing. Identical values can stand only once. Entries after “also recorded” stand apart in the source; their conditions may differ.
What was measured:
NikA = NikA (Klebsiella pneumoniae, UniProt A6TFA3); assay type: binding
[1] = tested on: S. aureus USA300 ureC::tn; experiment: Galleria mellonella infection model; assay type: in vivo; settings: for survival curve event per larva: S. aureus ureC::Tn + 7.5 μg/mL Zn-AMA, one cell per larva
Procedure: (§1) The cell suspensions were mixed at an equal volume of 300 μg/mL Zn-AMA before injection. The larvae were each injected with 10 μL ([…]) of bacterial suspension with and without Zn-AMA or PBS. Ten larvae were used per group, incubated at 30 °C, and monitored on a 24-hour cycle. Fresh G. mellonella larvae were obtained from The Dragon Lair (www.thedragonlair.ca).

K. pneumoniae ATCC 33495 = experiment: Galleria mellonella infection model; assay type: in vivo; settings: for survival curve event per larva: K. pneumoniae + 7.5 μg/mL Zn-AMA, one cell per larva
Procedure: as §1

S. aureus USA300 = experiment: Galleria mellonella infection model; assay type: in vivo; settings: for survival curve event per larva: S. aureus + 7.5 μg/mL Zn-AMA, one cell per larva
Procedure: as §1

K. pneumoniae biofilm = experiment: Polystyrene microtiter biofilm assay (crystal violet); assay type: cell-based, Klebsiella pneumoniae
Procedure: Biofilm assays to assess the effect of Zn-AMA were adapted from a previously described method. Overnight cultures of K. pneumoniae or S. aureus USA300 were diluted in sterile saline (NaCl, 0.9% w/v) to an OD600 of 0.1 and diluted 1/200 in either M9-Cas, or artificial urine. Two-fold dilutions of Zn-AMA were added to the cells in a 96-well round-bottom microtiter plate, and the cells were grown at 37 °C for 18 hours in a static incubator. […] The biofilms were washed three times with deionized water, air-dried, and stained with 0.1% crystal violet for 15 min. Excess crystal violet was removed, the plates were washed with deionized water three times, and they were air-dried for 1 hour. […] Experiments were performed in four replicates, and absorbance measurements were performed in a BioTek Synergy H1 plate reader.

Chain of NikA (A6TFA3 entry or part of it): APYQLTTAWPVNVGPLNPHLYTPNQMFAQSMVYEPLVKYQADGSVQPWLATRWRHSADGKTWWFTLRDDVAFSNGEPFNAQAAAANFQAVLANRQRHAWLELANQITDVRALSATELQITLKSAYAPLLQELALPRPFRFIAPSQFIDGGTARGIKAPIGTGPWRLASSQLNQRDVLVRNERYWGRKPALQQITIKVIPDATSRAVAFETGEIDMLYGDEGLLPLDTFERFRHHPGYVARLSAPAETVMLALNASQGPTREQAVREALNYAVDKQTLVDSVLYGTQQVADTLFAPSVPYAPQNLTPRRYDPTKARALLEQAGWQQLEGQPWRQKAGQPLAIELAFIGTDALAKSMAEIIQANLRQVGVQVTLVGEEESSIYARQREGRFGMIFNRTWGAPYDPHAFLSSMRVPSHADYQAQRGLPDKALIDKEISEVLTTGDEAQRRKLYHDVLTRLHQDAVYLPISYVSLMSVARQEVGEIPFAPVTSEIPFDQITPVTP

With `N[C@@H](CN[C@@H](CN[C@@H](CC(=O)O)C(=O)O)C(=O)O)C(=O)O.[Zn+2]` [Zn-AMA] the “fold greater KD (weaker affinity) relative to Ni-(L-His)2” value (NikA) was 14 fold, the “n (stoichiometry, ITC)” value (NikA; 37 °C, pH 7.5) was 0.78 and the “∆G” value (NikA; 37 °C, pH 7.5) was -7.3 kcal/mol. The “∆H” value (NikA; 37 °C, pH 7.5) was -11.6 kcal/mol, the “−T∆S” value (NikA; 37 °C, pH 7.5) was 4.3 kcal/mol and the Kd (NikA; read-out: KD for NikA (ITC), 25 mM Tris-HCl, 150 mM NaCl, 0.1% Triton X-100, pH 7.5, 37 °C) was 6.8 ± 0.4 µM. For the same compound, the “G. mellonella larvae survival” value ([1]; S. aureus USA300 ureC::tn infection, 7.5 mg/kg) was “no effect on the survival; also recorded: no significant survival benefit”, the “survival curve event per larva” value ([1]; day 1 post infection) was 1 and the “survival curve event per larva” value ([1]; day 2 post infection) was 1. For the same compound, the “survival curve event per larva” value ([1]; day 3 post infection) was 1, the “survival curve event per larva” value ([1]; day 5 post infection) was 1 and the “survival curve event per larva” value (K. pneumoniae ATCC 33495; day 1 post infection) was 1. The “survival curve event per larva” value (K. pneumoniae ATCC 33495; day 2 post infection) was 1, the “survival curve event per larva” value (K. pneumoniae ATCC 33495; day 3 post infection) was 1 and the “survival curve event per larva” value (K. pneumoniae ATCC 33495; day 5 post infection) was 1. The “G. mellonella larvae survival” value (K. pneumoniae ATCC 33495; K. pneumoniae infection, 7.5 mg/kg, seven days) was “significantly enhance the survival; also recorded: effective monotherapy”, the “survival curve event per larva” value (S. aureus USA300; day 1 post infection) was 1 and the “survival curve event per larva” value (S. aureus USA300; day 2 post infection) was 1. The “survival curve event per larva” value (S. aureus USA300; day 3 post infection) was 1, the “survival curve event per larva” value (S. aureus USA300; day 5 post infection) was 1 and the “survival curve event per larva” value (S. aureus USA300; day 7 post infection) was 0. For the same compound, the “G. mellonella larvae survival” value (S. aureus USA300; S. aureus USA300 infection, 7.5 mg/kg, seven days) was “significantly enhance the survival; also recorded: effective monotherapy”, the “Biofilm (A595), crystal violet” value (K. pneumoniae biofilm; 1.56 μM, artificial urine) was 0.659 and 0.666 and 0.436 and 0.533 and the “Planktonic (A595)” value (K. pneumoniae biofilm; 1.56 μM, artificial urine) was 0.141 and 0.142 and 0.148 and 0.16. For the same compound, the “Biofilm (A595), crystal violet” value (K. pneumoniae biofilm; 3.12 μM, artificial urine) was 0.633 and 0.585 and 0.45 and 0.471, the “Planktonic (A595)” value (K. pneumoniae biofilm; 3.12 μM, artificial urine) was 0.147 and 0.142 and 0.13 and 0.155 and the “Planktonic (A595)” value (K. pneumoniae biofilm; 6.2 μM, artificial urine) was 0.194 and 0.11 and 0.126 and 0.129. For the same compound, the “Planktonic (A595)” value (K. pneumoniae biofilm; 12.5 μM, artificial urine) was 0.177 and 0.124 and 0.113 and 0.167, the “Planktonic (A595)” value (K. pneumoniae biofilm; 25 μM, artificial urine) was 0.165 and 0.136 and 0.151 and 0.152 and the “Planktonic (A595)” value (K. pneumoniae biofilm; 50 μM, artificial urine) was 0.165 and 0.152 and 0.157 and 0.154. The “Planktonic (A595)” value (K. pneumoniae biofilm; 100 μM, artificial urine) was 0.171 and 0.148 and 0.158 and 0.166, the “Planktonic (A595)” value (K. pneumoniae biofilm; 200 μM, artificial urine) was 0.167 and 0.176 and 0.175 and 0.166 and the “effect on biofilm production” value (K. pneumoniae biofilm; M9 minimal medium) was “biofilms were unperturbed”. For the same compound, the “effect on biofilm production” value (K. pneumoniae biofilm; artificial urine) was “completely suppress biofilm production”.

Reference: publication PMC11091072, “Targeting bacterial nickel transport with aspergillomarasmine A suppresses virulence-associated Ni-dependent enzymes” (Nature Communications, 2024)
